Results published in ChEMBL document CHEMBL1129095, “Design and synthesis of new antagonist peptides for platelet GPIIb/IIIa receptor as anti-thrombotic agents” (Bioorg Med Chem Lett, 1996).
Non-standard residues stand in square brackets, D forms with d. Residues, ends and D or L forms follow the SMILES beside them. *: point of attachment. Butyryl(4-indol-3-yl) = O=C(CCCc1c[nH]c2ccccc12)*; Dihydroorotyl(S) = O=C1C[C@@H](C(=O)*)NC(=O)N1; Phthalimidoacetyl = O=C1c2ccccc2C(=O)N1CC(=O)*; X4 = COc1ccc2[nH]c(C)c(CC(=O)*)c2c1; Hyp = O=C(O)[C@@H]1C[C@@H](O)CN1; X8 = COc1ccc2[nH]cc(CC(=O)*)c2c1; X7 = Cc1[nH]c2ccccc2c1CC(=O)*; pGlu = O=C1CC[C@@H](C(=O)O)N1; X2 = O=C(Cc1c[nH]c2ccccc12)*; NMePro = CN1CCC[C@H]1C(=O)*; X6 = O=C1NC(=O)C(CC(=O)*)N1; X1 = O=C1N[C@H](C(=O)*)CS1; Pip = O=C(O)[C@@H]1CCCCN1; X3 = O=C(c1cc(O)nc(O)n1)*; Thz = O=C(O)[C@@H]1CSCN1; Aze = O=C(O)[C@@H]1CCN1; X5 = O=C([C@@H]1CCCO1)*; PhAc = O=C(Cc1ccccc1)*; Bz = O=C(c1ccccc1)*

Species on record: Homo sapiens
Assay: Inhibition of collagen-induced human platelet aggregation.
Assay type: functional

Compound	IC50 [µM]
N=C(N)NCCC[C@H](NC(=O)[C@H](CO)NC(=O)[C@@H]1CCCN1)C(=O)NCC(=O)N[C@@H](CC(=O)O)C(=O)N[C@@H](Cc1c[nH]c2ccccc12)C(=O)O	0.87
N=C(N)NCCC[C@H](NC(=O)[C@H](CO)NC(=O)[C@H]1CCCN1)C(=O)NCC(=O)N[C@@H](CC(=O)O)C(=O)N[C@@H](Cc1c[nH]c2ccccc12)C(=O)O	33
N=C(N)NCCC[C@H](NC(=O)[C@H](CO)NC(=O)c1ccccc1)C(=O)NCC(=O)N[C@@H](CC(=O)O)C(=O)N[C@@H](Cc1c[nH]c2ccccc12)C(N)=O (Bz-SRGDW-NH2)	34
NC(=O)[C@H](Cc1ccccc1)NC(=O)[C@H](CC(=O)O)NC(=O)CNC(=O)[C@@H](N)CCCN=C(N)N (H-RGDF-NH2)	50
N=C(N)NCCC[C@H](NC(=O)[C@H](CO)NC(=O)[C@@H]1CCN1)C(=O)NCC(=O)N[C@@H](CC(=O)O)C(=O)N[C@@H](Cc1c[nH]c2ccccc12)C(=O)O (H-[Aze]SRGDW-OH)	1.3
N=C(N)NCCC[C@H](NC(=O)[C@H](CO)NC(=O)[C@@H]1C[C@@H](O)CN1)C(=O)NCC(=O)N[C@@H](CC(=O)O)C(=O)N[C@@H](Cc1c[nH]c2ccccc12)C(=O)O (H-[Hyp]SRGDW-OH)	28
N=C(N)NCCC[C@H](NC(=O)[C@H](CO)NC(=O)[C@@H]1CCCCN1)C(=O)NCC(=O)N[C@@H](CC(=O)O)C(=O)N[C@@H](Cc1c[nH]c2ccccc12)C(=O)O (H-[Pip]SRGDW-OH)	11
N=C(N)NCCC[C@H](NC(=O)[C@H](CO)NC(=O)[C@@H]1CSCN1)C(=O)NCC(=O)N[C@@H](CC(=O)O)C(=O)N[C@@H](Cc1c[nH]c2ccccc12)C(=O)O (H-[Thz]SRGDW-OH)	27
CN1CCC[C@H]1C(=O)N[C@@H](CO)C(=O)N[C@@H](CCCN=C(N)N)C(=O)NCC(=O)N[C@@H](CC(=O)O)C(=O)N[C@@H](Cc1c[nH]c2ccccc12)C(=O)O (NMePro-SRGDW-OH)	20
N=C(N)NCCC[C@H](NC(=O)[C@H](CO)NC(=O)Cc1ccccc1)C(=O)NCC(=O)N[C@@H](CC(=O)O)C(=O)N[C@@H](Cc1c[nH]c2ccccc12)C(N)=O (PhAc-SRGDW-NH2)	59
N=C(N)NCCC[C@H](NC(=O)[C@H](CO)NC(=O)CN1C(=O)c2ccccc2C1=O)C(=O)NCC(=O)N[C@@H](CC(=O)O)C(=O)N[C@@H](Cc1c[nH]c2ccccc12)C(N)=O (Phthalimidoacetyl-SRGDW-NH2)	21
N=C(N)NCCC[C@H](NC(=O)[C@H](CO)NC(=O)[C@@H]1CSC(=O)N1)C(=O)NCC(=O)N[C@@H](CC(=O)O)C(=O)N[C@@H](Cc1c[nH]c2ccccc12)C(=O)O (X1-SRGDW-OH)	12
N=C(N)NCCC[C@H](NC(=O)[C@H](CO)NC(=O)Cc1c[nH]c2ccccc12)C(=O)NCC(=O)N[C@@H](CC(=O)O)C(=O)N[C@@H](Cc1c[nH]c2ccccc12)C(=O)O (X2-SRGDW-OH)	21
N=C(N)NCCC[C@H](NC(=O)[C@H](CO)NC(=O)c1cc(O)nc(O)n1)C(=O)NCC(=O)N[C@@H](CC(=O)O)C(=O)N[C@@H](Cc1c[nH]c2ccccc12)C(=O)O (X3-SRGDW-OH)	4
COc1ccc2[nH]c(C)c(CC(=O)N[C@@H](CO)C(=O)N[C@@H](CCCN=C(N)N)C(=O)NCC(=O)N[C@@H](CC(=O)O)C(=O)N[C@@H](Cc3c[nH]c4ccccc34)C(=O)O)c2c1 (X4-SRGDW-OH)	25
N=C(N)NCCC[C@H](NC(=O)[C@H](CO)NC(=O)[C@@H]1CCCO1)C(=O)NCC(=O)N[C@@H](CC(=O)O)C(=O)N[C@@H](Cc1c[nH]c2ccccc12)C(=O)O (X5-SRGDW-OH)	21
N=C(N)NCCC[C@H](NC(=O)[C@H](CO)NC(=O)CC1NC(=O)NC1=O)C(=O)NCC(=O)N[C@@H](CC(=O)O)C(=O)N[C@@H](Cc1c[nH]c2ccccc12)C(=O)O (some centres not stated) (X6-SRGDW-OH)	6.9
Cc1[nH]c2ccccc2c1CC(=O)N[C@@H](CO)C(=O)N[C@@H](CCCN=C(N)N)C(=O)NCC(=O)N[C@@H](CC(=O)O)C(=O)N[C@@H](Cc1c[nH]c2ccccc12)C(=O)O (X7-SRGDW-OH)	22
COc1ccc2[nH]cc(CC(=O)N[C@@H](CO)C(=O)N[C@@H](CCCN=C(N)N)C(=O)NCC(=O)N[C@@H](CC(=O)O)C(=O)N[C@@H](Cc3c[nH]c4ccccc34)C(=O)O)c2c1 (X8-SRGDW-OH)	11
N=C(N)NCCC[C@H](NC(=O)[C@H](CO)NC(=O)[C@@H]1CCC(=O)N1)C(=O)NCC(=O)N[C@@H](CC(=O)O)C(=O)N[C@@H](Cc1c[nH]c2ccccc12)C(=O)O ([pGlu]SRGDW-OH)	5.6
N=C(N)NCCC[C@H](NC(=O)[C@H](CO)NC(=O)CCCc1c[nH]c2ccccc12)C(=O)NCC(=O)N[C@@H](CC(=O)O)C(=O)N[C@@H](Cc1c[nH]c2ccccc12)C(=O)O ({Butyryl(4-indol-3-yl)}-SRGDW-OH)	21
N=C(N)NCCC[C@H](NC(=O)[C@H](CO)NC(=O)[C@@H]1CC(=O)NC(=O)N1)C(=O)NCC(=O)N[C@@H](CC(=O)O)C(=O)N[C@@H](Cc1c[nH]c2ccccc12)C(=O)O ({Dihydroorotyl(S)}-SRGDW-OH)	8.7
Ac-PSRGDW-OH	50
Ac-SRGDW-NH2	74
H-FSRGDW-OH	23
H-WSRGDW-OH	6.8

System: not listed separately
Assay: T1/2 was evaluated in human plasma
Assay type: ADME, cell-free

Compound	half-life [min]
H-WSRGDW-OH	11
